According to publication PMC4912613, “A broad analysis of resistance development in the malaria parasite” (Nature Communications, 2016):

Key:
[1] = system: HepG2; assay: Hepatocyte toxicity; type: cell-based, human; details: for Hepatocyte Toxicity: HepG2; for EC50 fold shift compared to asexual stage: Hepatocyte Toxicity: hepatocyte toxicity / 3D7 EC50; for Liver Stage / Hepatocyte Toxicity: toxicity fold shift for the liver stage (hepatocyte toxicity vs liver stage EC50)
From the text: (§1) As drugs that eliminate multiple stages of the parasite lifecycle will be critical components in global efforts to eliminate malaria, we were interested in knowing whether the compounds in our study had additional activities against either the liver and/or transmission stages of the parasite lifecycle. To determine this, we first evaluated the compounds in additional phenotypic assays. The first assay was a P. berghei hepatocyte invasion and development assay, which predicts causal prophylactic activity. Hepatocyte toxicity was additionally tested to identify false-positive activity in the liver stage due to host-cell toxicity. Assays were executed in duplicate using a 12-point EC50 curve at starting concentrations of 5 μM or 50 μM (Supplementary Table 1).
(§2) Liver-stage activity was determined by pretreating hepatic human cells (HepG2) for 2 h with compound in 1,536-well plates infected with freshly dissected P. berghei sporozoites. After 48 h of incubation, the viability of P. berghei exoerythrocytic forms was measured by luminescence reaction light output using BrightGlo (Promega). Varying levels of compound concentration were used (5 μM or 50 μM) due to the stock concentration supplied.

[2] = system: ATQ-R4 (cytb M133I and L144S, parent 3D7); assay: Cross-resistance EC50 assay, ATQ-R4; type: cell-based, Plasmodium falciparum; details: for EC50: Plasmodium falciparum, 3D7, SYBR green 72 hour assay, asynchronized parasites, 96-well or 1536-well format, ATQ-R4
From the text: (§3) To evaluate potential overlapping activity against known antimalarial drug targets, we performed dose-response studies with each compound against our assembled set of drug-resistant lines and their corresponding parents, in an asexual blood stage proliferation assay (Table 1). Comparisons were made to the drug-sensitive strain 3D7 when a parent was unavailable (TM90C2A, W2 and Dd2). As laboratories conducted EC50 assays with different strains and protocols, all comparisons were made between assays from the same laboratory and under the same assay conditions. Compounds displaying >5-fold EC50 shifts relative to the parent or sensitive strain were flagged as having potentially non-novel targets. Average fold shifts per strain ranged from 0.82 to 2.34, with a median of 1.23 indicating there was not common resistance to any one resistant clone. No resistance patterns were observed when classifying the compounds based on chemical structure, but this was not surprising given the diversity of compounds chosen. On the other hand, given that these confirmed compounds were derived from larger unconfirmed hit lists to which some filtration criteria may have been applied (for example, elimination of obvious dihydrofolate reductase inhibitors[32]), some[10][11][12][13] pre-existing bias may exist in the set. […]
(§4) Alternatively, a SYBR Green-based proliferation approach was used for the 72-h assay, as previously described. Briefly, a culture of either synchronized or asynchronous parasitized RBCs (0.3% parasitemia and 4% haematocrit) in screening medium (identical to supplemented medium above except no serum was added) was exposed to serial drug dilutions. Plates were incubated at 37 °C and gassed with 93% N2, 4% CO2 and 3% O2 for 72 h. Following incubation, 10 × SYBR Green I (Invitrogen; supplied in 10,000 × concentration) in lysis buffer ([…], 5 mM EDTA, 0.16% Saponin wt per vol and 1.6% Triton X vol per vol) was added to the wells and the plates were incubated overnight at room temperature before plate reading. EC50 assays were repeated three times, taking the average EC50 value from each assay set, and removing any outliers using a single iteration of Grubbs' test, eliminating values with z-scores above the critical z-value (α=0.05). The raw EC50 values for synchronized parasites assayed in a 384-well format are listed in Supplementary Data 4. The raw EC50 values for asynchronous parasites assayed in a 96 or 1536-well format are listed in Supplementary Data 5.
(§5) EC50 values for each strain were compared with those of the corresponding parent strain to determine fold-shift changes and identify resistance. To minimize the cause variance between assays, all comparisons were conducted between strains assayed under identical conditions. A one-way ANOVA followed by a Dunnet's post-test was conducted in GraphPad Prism to identify significant changes between the parent and resistant strain.

[3] = system: P. berghei exoerythrocytic forms; assay: Liver-stage P. berghei hepatocyte invasion and development assay (luminescence, HepG2); type: cell-based, Plasmodium berghei; details: for EC50: Plasmodium berghei, HepG2, 48 h, P. berghei sporozoites, read-out: Liver Stage EC50; for EC50 fold shift compared to asexual stage: Liver Stage EC50: liver stage EC50 / 3D7 EC50
From the text: as §1, §2

[4] = system: hsp90 (D88Y, parent Dd2); assay: Cross-resistance EC50 assay, hsp90; type: cell-based; details: Plasmodium falciparum, SYBR green 72 hour assay, synchronized parasites, 384-well format
From the text: as §3, §4, §5

With COc1ccc(NC(=O)N2CCCCN3[C@H](CN)[C@H](c4ccc(C#Cc5ccccc5)cc4)[C@@H]3C2)cc1 [BRD1095] the “Hepatocyte Toxicity” value [1] was > 50 µM, the “EC50 fold shift compared to asexual stage: Hepatocyte Toxicity” value (“EC50 fold shift … Hepatocyte Toxicity” for short) [1] was > 1250 and the “Liver Stage / Hepatocyte Toxicity” value [1] was > 605. The EC50 [2] was 0.003 µM, the EC50 [3] was 82.6 nM and the “EC50 fold shift compared to asexual stage: Liver Stage EC50” value (from here on “EC50 fold shift … Liver Stage EC50”) [3] was 2.07. The EC50 ([4]; DD2, HSP90 strain) was 17 nM.

CCN(CC)CCn1c(=N)n(CC(O)c2ccc(Cl)c(Cl)c2)c2ccccc21.Cl (stereo not drawn) [MMV000248] was tested, and the “Hepatocyte Toxicity” value [1] was 20.64 µM, the “EC50 fold shift … Hepatocyte Toxicity” value [1] was 67.45 and the “Liver Stage / Hepatocyte Toxicity” value [1] was 3.72. For the same compound, the EC50 [2] was 0.177 µM, the EC50 [3] was 5550 nM and the “EC50 fold shift … Liver Stage EC50” value [3] was 18.14. It also gave an EC50 ([4]; strain HSP90 (Dd2 parent)) of 328 nM.

With CCOc1cc2c(cc1OCC)C(c1cc(Cl)ccc1O)NCC2 (stereo not drawn) [MMV000478] the “Hepatocyte Toxicity” value [1] was > 5 µM, the “EC50 fold shift … Hepatocyte Toxicity” value [1] was > 5 and the EC50 [2] was 0.833 µM. For the same compound, the EC50 [3] was > 5000 nM, the “EC50 fold shift … Liver Stage EC50” value [3] was > 5 and the EC50 ([4]; strain HSP90 (Dd2 parent)) was 1050 nM.

For CCCOCc1cc(CN2CCN(c3cccc(Cl)c3)CC2)c(O)c2ncccc12 [MMV000787], the “Hepatocyte Toxicity” value [1] was 2.43 µM, the “Liver Stage / Hepatocyte Toxicity” value [1] was 4.05 and the EC50 [2] was 1.44 µM. For the same compound, the EC50 [3] was 600 nM and the EC50 ([4]; strain HSP90 (Dd2 parent)) was 476 nM.

For CN1CCN(c2ccc(Nc3c4ccccc4nc4ccccc34)cc2)CC1 [MMV006172], the “Hepatocyte Toxicity” value [1] was 4.554 µM, the “Liver Stage / Hepatocyte Toxicity” value [1] was 2.21 and the EC50 [2] was 0.217 µM. The EC50 [3] was 2060 nM and the EC50 ([4]; strain HSP90 (Dd2 parent)) was 139 nM.

CCCN(CCC)CC(O)COc1ccccc1C(=O)Nc1ccccc1 (stereo not drawn) [MMV006455] was tested, and the “Hepatocyte Toxicity” value [1] was > 5 µM, the “EC50 fold shift … Hepatocyte Toxicity” value [1] was > 9.4 and the EC50 [2] was 0.674 µM. For the same compound, the EC50 [3] was > 5000 nM, the “EC50 fold shift … Liver Stage EC50” value [3] was > 9.4 and the EC50 ([4]; strain HSP90 (Dd2 parent)) was 2060 nM.

With COc1cc2cc(C(=O)Nc3ccccc3)c(N)nc2cc1OC [MMV006767] the “Hepatocyte Toxicity” value [1] was > 50 µM, the EC50 [2] was 2.73 µM and the EC50 [3] was > 50000 nM. It also gave an EC50 ([4]; strain HSP90 (Dd2 parent)) of 3100 nM.

Cc1cc(Nc2ccc(OCc3ccccc3)cc2)nc2cc(O)ccc12 [MMV007181] was tested, and the “Hepatocyte Toxicity” value [1] was 7.952 µM, the “EC50 fold shift … Hepatocyte Toxicity” value [1] was 22.98 and the “Liver Stage / Hepatocyte Toxicity” value [1] was 1.66. The EC50 [2] was 0.109 µM, the EC50 [3] was 4790 nM and the “EC50 fold shift … Liver Stage EC50” value [3] was 13.83. For the same compound, the EC50 ([4]; strain HSP90 (Dd2 parent)) was 120 nM.

Brc1ccc(Nc2nc3ccccc3nc2Nc2ccc(Br)cc2)cc1 [MMV007224] was tested, and the “Hepatocyte Toxicity” value [1] was 1.868 µM, the “EC50 fold shift … Hepatocyte Toxicity” value [1] was 8.41 and the “Liver Stage / Hepatocyte Toxicity” value [1] was 3.63. For the same compound, the EC50 [2] was 0.766 µM, the EC50 [3] was 514 nM and the “EC50 fold shift … Liver Stage EC50” value [3] was 2.32. The EC50 ([4]; strain HSP90 (Dd2 parent)) was 247 nM.

With Cc1ccc(Cn2c(N3CCC(C(=O)NCc4cccs4)CC3)nc3ccccc32)cc1 [MMV007564] the “Hepatocyte Toxicity” value [1] was > 6.6 µM, the “EC50 fold shift … Hepatocyte Toxicity” value [1] was > 57 and the “Liver Stage / Hepatocyte Toxicity” value [1] was > 21. The EC50 [2] was 1.05 µM, the EC50 [3] was 1510 nM and the “EC50 fold shift … Liver Stage EC50” value [3] was 2.60. The EC50 ([4]; strain HSP90 (Dd2 parent)) was 710 nM.

In the case of Cc1c(C)n(Cc2ccc(F)cc2)c2ccc(C(=O)NCc3ccco3)cc12 [MMV008149], the “Hepatocyte Toxicity” value [1] is reported as > 5 µM, the “EC50 fold shift … Hepatocyte Toxicity” value [1] is reported as > 6.5 and the “Liver Stage / Hepatocyte Toxicity” value [1] is reported as > 5.6. For the same compound, the EC50 [2] was 3.88 µM, the “EC50 fold-shift, ATQ-R4 vs parent” value ([2]; resistance, parent 3D7) was “Statistically significant resistance” and the EC50 [3] was 882 nM. The “EC50 fold shift … Liver Stage EC50” value [3] was 1.15 and the EC50 ([4]; strain HSP90 (Dd2 parent)) was 191 nM.

With OC(CNC1CCCCC1)Cn1c2ccccc2c2ccccc21 (stereo not drawn) [MMV009063] the “Hepatocyte Toxicity” value [1] was > 5 µM, the “EC50 fold shift … Hepatocyte Toxicity” value [1] was > 6.3 and the EC50 [2] was 0.668 µM. The EC50 [3] was > 5000 nM, the “EC50 fold shift … Liver Stage EC50” value [3] was > 6.3 and the EC50 ([4]; strain HSP90 (Dd2 parent)) was 286 nM.

With CCN(CC)S(=O)(=O)c1ccc(-c2csc(Nc3ccc(C)c(C)c3)n2)cc1 [MMV009108] the “Hepatocyte Toxicity” value [1] was > 5 µM, the “EC50 fold shift … Hepatocyte Toxicity” value [1] was > 5.3 and the “Liver Stage / Hepatocyte Toxicity” value [1] was > 1. The EC50 [2] was 2.44 µM, the EC50 [3] was 4790 nM and the “EC50 fold shift … Liver Stage EC50” value [3] was 5.15. For the same compound, the EC50 ([4]; strain HSP90 (Dd2 parent)) was 512 nM.

For COC(=O)c1ccc(C2C3=C(O)CC(c4ccc(F)cc4)CC3=Nc3ccccc3N2C(=O)c2ccccc2)cc1 (stereo not drawn) [MMV011438], the “Hepatocyte Toxicity” value [1] was > 50 µM, the “EC50 fold shift … Hepatocyte Toxicity” value [1] was > 116 and the “Liver Stage / Hepatocyte Toxicity” value [1] was > 80. For the same compound, the EC50 [2] was 0.379 µM, the EC50 [3] was 621 nM and the “EC50 fold shift … Liver Stage EC50” value [3] was 1.44. For the same compound, the EC50 ([4]; strain HSP90 (Dd2 parent)) was 127 nM.

Nc1ccc(-c2nc3cc(Oc4ccc(Oc5ccc6[nH]c(-c7ccc(N)cc7)nc6c5)cc4)ccc3[nH]2)cc1 [MMV011895] was tested, and the “Hepatocyte Toxicity” value [1] was > 50 µM, the “EC50 fold shift … Hepatocyte Toxicity” value [1] was > 300 and the EC50 [2] was 0.545 µM. For the same compound, the EC50 [3] was > 50000 nM, the “EC50 fold shift … Liver Stage EC50” value [3] was > 300 and the EC50 ([4]; strain HSP90 (Dd2 parent)) was 311 nM.

COCCNCC(O)Cn1c2ccc(Cl)cc2c2cc(Cl)ccc21 (stereo not drawn) [MMV019017] was tested, and the “Hepatocyte Toxicity” value [1] was > 5 µM, the “EC50 fold shift … Hepatocyte Toxicity” value [1] was > 10 and the EC50 [2] was 1.24 µM. The EC50 [3] was > 5000 nM, the “EC50 fold shift … Liver Stage EC50” value [3] was > 10 and the EC50 ([4]; strain HSP90 (Dd2 parent)) was 614 nM.

In the case of CN(C)CCCN(C)C(=O)C1Cc2cc(-c3ccccc3)ccc2N1S(=O)(=O)c1ccccc1 (stereo not drawn) [MMV028895], the EC50 [2] is reported as 1.07 µM and the EC50 ([4]; strain HSP90 (Dd2 parent)) is reported as 332 nM.

c1cc(-c2cnc3ccc(-c4ccc(N5CCOCC5)cc4)nn23)ccn1 [MMV668311] was tested, and the “Hepatocyte Toxicity” value [1] was 5.119 µM, the “EC50 fold shift … Hepatocyte Toxicity” value [1] was 106.65 and the “Liver Stage / Hepatocyte Toxicity” value [1] was 2.27. The EC50 [2] was 0.029 µM, the EC50 [3] was 2250 nM and the “EC50 fold shift … Liver Stage EC50” value [3] was 46.90.

For COc1ccc2c3c([nH]c2c1)[C@H](CO)N(C(C)=O)CC31CCN(C(=O)Nc2ccccc2F)CC1 [MMV673482], the EC50 [2] was 0.027 µM and the EC50 ([4]; DD2, HSP90 strain) was 94 nM.
